Test: log P (octanol/water partition coefficient) by HPLC method of Leahy, Taylor and Wait
Assay type: physicochemical
Details: octanol in conjunction with water
Description: Water resistance of compounds of formula I may be evaluated by reference to the partition coefficient of the compounds using a non-polar solvent such as octanol in conjunction with water. The term log P, where P is the partition coefficient, where used herein refers to the log P value determined by the HPLC method of David E Leahy, Peter J Taylor and Alan R Wait, Ouant. Struct.-Act Relat., 8, 17-31 (1989) at pages 23 and 24. Log P may be used to directly compare the lipophilicity of a variety of molecules as described by Hansch, C., and Leo, A. J., Substituent Constants for Correlation Analysis in Chemistry and Biology, John Wiley, New York 1979.
Struct. Act Relat., 8, 17-31 (1989) and the results are recorded in Table 6.

chromatographic logP | Compound
3.2 | CCC(=O)C1=CN(CC(C)C)CCC1(C)C [Compound 1, I-(2-Methylpropyl)-3-propionyl-4,4-dimethyl-1,4,5,6-tetrahydropyridine]
2.7 | CC(=O)C1=CN(CC(C)C)CCC1(C)C [Compound 2, I-(2-Methylpropyl) -3-acetyl-4,4-dimethyl-1,4,5,6-tetrahydropyridine]
3.7 | CCCC(=O)C1=CN(CC(C)C)CCC1(C)C [Compound 3, 1-(2-Methylpropyl) -3-butyryl-4,4-dimethyl-1,4,5,6-tetrahydropyridine]
3 | CC(C)CN1C=C(C(=O)C(F)(F)F)C(C)(C)CC1 [Compound 4, 1-(2-Methylpropyl) -3-trifluoroacetyl-4,4-dimethyl-1,4,5,6-tetrahydropyridine]
5.8 | CCCCCCCC(=O)C1=CN(CC(C)C)CCC1(C)C [Compound 5, 1-(2-Methylpropyl) -3-octanoyl-4,4-dimethyl-1,4,5,6-tetrahydropyridine]
9.4 | CCCCCCCCCCCCCCCCN1C=C(C(=O)CC)C(C)(C)CC1 [Compound 6, 1-Palmityl-3-propionyl-4,4-dimethyl-1,4,5,6-tetrahydropyridine]
4.8 | CCCCCCCC(=O)C1=CN(CC)CCC1(C)C [Compound 7, 1-Ethyl-3-octanoyl--4,4-dimethyl-1,4,5,6-tetrahydropyridine]
5.3 | CCCCC(CC)CN1C=C(C(=O)CC)C(C)(C)CC1 (centres unmarked) [Compound 8, 1-(2-Ethylhexyl)-3-propionyl-4,4-dimethyl-1,4,5,6-tetrahydropyridine]
5.8 | CCCCCCCCCC(=O)C1=CN(CC)CCC1(C)C [Compound 9, I-Ethyl-3-decanoyl--4,4-dimethyl-1,4,5,6-tetrahydropyridine]
8.9 | CCCCCCCCCCCCCCCC(=O)C1=CN(CC)CCC1(C)C [Compound 10, 1-Ethyl-3-palmitoyl--4,4-dimethyl-1,4,5,6-tetrahydropyridine]
7.4 | CCCCCCCCCCCCCC(=O)C1=CN(C)CCC1(C)C [Compound 11, 1-Methyl-3-myristoyl-4,4-dimethyl-1,4,5,6-tetrahydropyridine]
7.4 | CCCCCCCC(=O)C1=CN(CCCCCCC)CCC1(C)C [Compound 12, 1-Heptyl-3-octanoyl-4,4-dimethyl--1,4,5,6-tetrahydropyridine]
6.9 | CCCCC(CC)COC(=O)CCC(=O)C1=CN(CC)CCC1(C)C (centres unmarked) [Compound 13, 1-Ethyl-3(2-ethyl-hexylsuccinoyl)--4,4-dimethyl-1,4,5,6-tetrahydropyridine]
6.3 | CCCCCCCCCC(=O)C1=CN(CCC)CCC1(C)C [Compound 14, 1-Propyl-3-decanoyl-4,4-dimethyl-1,4,5,6-tetrahydropyridine]
6.3 | CCCCCCCCCC(=O)C1=CN(C(C)C)CCC1(C)C [Compound 15, 1-(-Methylethyl)-3 decanoyl--4,4-dimethyl-1,4,5,6-tetrahydropyridine]
6.9 | CCCCCCCCCC(=O)C1=CN(CC(C)C)CCC1(C)C [Compound 16, 1-(2-Methylpropyl) -3-decanoyl--4,4-dimethyl-1,4,5,6-tetrahydropyridine]
6.3 | CCCCCCCCCCCC(=O)C1=CN(C)CCC1(C)C [Compound 17, 1-Methyl-3-lauroyl--4,4-dimethyl 4,5,6-tetrahydropyridine]
6.3 | CCCCCCCCCCN1C=C(C(=O)CC)C(C)(C)CC1 [Compound 18, 1-Decyl-3-propionyl--4,4-dimethyl-1,4,5,6-tetrahydropyridine]
6.9 | CCCCCCCC(=O)C1=CN(C2CCCCC2)CCC1(C)C [Compound 19, 1-Cyclohexyl-3-octanoyl-4,4-dimethyl-1,4,5,6-tetrahydropyridine]
6.9 | CCCCCCCCCC(=O)C1=CN(C(C)(C)C)CCC1(C)C [Compound 20, 1-(1,1-Dimethyl-ethyl)-3-decanoyl--4,4-dimethyl-1,4,5,6-tetrahydropyridine]
5.8 | CCCCCCCC(=O)C1=CN(C(C)(C)C)CCC1(C)C [Compound 21, 1-(1,1-Dimethyl-ethyl)-3-octanoyl-4,4-dimethyl-1,4,5,6-tetrahydropyridine]
4.8 | CCCCCC(=O)C1=CN(C(C)(C)C)CCC1(C)C [Compound 22, 1-(1,1-Dimethyl-ethyl) -3-hexanoyl-4,4-dimethyl-1,4,5,6-tetrahydropyridine]
5.3 | CCCCCCCC(=O)C1=CN(C(C)C)CCC1(C)C [Compound 23, 1-(1-Methylethyl)-3-octanoyl-4,4-dimethyl-1,4,5,6-tetrahydropyridine]
9.4 | CC(C)CN1C=C(C(=O)CCCCC(=O)C2=CN(CC(C)C)CCC2(C)C)C(C)(C)CC1 [Compound 24]

Test: E1%: relative UV absorbance of a 1% w/w solution
Assay type: physicochemical
Details: relative measure of the UV absorbance of a 1% w/w solution of the compound
Description: This example compares the ultraviolet light absorbing properties and water resistance properties of compounds of the invention.
E1% is a relative measure of the UV absorbance of a 1% w/w solution of the compound.

E1% | Compound
131 | CCC(=O)C1=CN(CC(C)C)CCC1(C)C [Compound 1, I-(2-Methylpropyl)-3-propionyl-4,4-dimethyl-1,4,5,6-tetrahydropyridine]
140 | CC(=O)C1=CN(CC(C)C)CCC1(C)C [Compound 2, I-(2-Methylpropyl) -3-acetyl-4,4-dimethyl-1,4,5,6-tetrahydropyridine]
124 | CCCC(=O)C1=CN(CC(C)C)CCC1(C)C [Compound 3, 1-(2-Methylpropyl) -3-butyryl-4,4-dimethyl-1,4,5,6-tetrahydropyridine]
112 | CC(C)CN1C=C(C(=O)C(F)(F)F)C(C)(C)CC1 [Compound 4, 1-(2-Methylpropyl) -3-trifluoroacetyl-4,4-dimethyl-1,4,5,6-tetrahydropyridine]
100 | CCCCCCCC(=O)C1=CN(CC(C)C)CCC1(C)C [Compound 5, 1-(2-Methylpropyl) -3-octanoyl-4,4-dimethyl-1,4,5,6-tetrahydropyridine]
75 | CCCCCCCCCCCCCCCCN1C=C(C(=O)CC)C(C)(C)CC1 [Compound 6, 1-Palmityl-3-propionyl-4,4-dimethyl-1,4,5,6-tetrahydropyridine]
110 | CCCCCCCC(=O)C1=CN(CC)CCC1(C)C [Compound 7, 1-Ethyl-3-octanoyl--4,4-dimethyl-1,4,5,6-tetrahydropyridine]
105 | CCCCC(CC)CN1C=C(C(=O)CC)C(C)(C)CC1 (centres unmarked) [Compound 8, 1-(2-Ethylhexyl)-3-propionyl-4,4-dimethyl-1,4,5,6-tetrahydropyridine]
100 | CCCCCCCCCC(=O)C1=CN(CC)CCC1(C)C [Compound 9, I-Ethyl-3-decanoyl--4,4-dimethyl-1,4,5,6-tetrahydropyridine]
77 | CCCCCCCCCCCCCCCC(=O)C1=CN(CC)CCC1(C)C [Compound 10, 1-Ethyl-3-palmitoyl--4,4-dimethyl-1,4,5,6-tetrahydropyridine]
87 | CCCCCCCCCCCCCC(=O)C1=CN(C)CCC1(C)C [Compound 11, 1-Methyl-3-myristoyl-4,4-dimethyl-1,4,5,6-tetrahydropyridine]
87 | CCCCCCCC(=O)C1=CN(CCCCCCC)CCC1(C)C [Compound 12, 1-Heptyl-3-octanoyl-4,4-dimethyl--1,4,5,6-tetrahydropyridine]
87 | CCCCC(CC)COC(=O)CCC(=O)C1=CN(CC)CCC1(C)C (centres unmarked) [Compound 13, 1-Ethyl-3(2-ethyl-hexylsuccinoyl)--4,4-dimethyl-1,4,5,6-tetrahydropyridine]
95 | CCCCCCCCCC(=O)C1=CN(CCC)CCC1(C)C [Compound 14, 1-Propyl-3-decanoyl-4,4-dimethyl-1,4,5,6-tetrahydropyridine]
91 | CCCCCCCCCC(=O)C1=CN(CC(C)C)CCC1(C)C [Compound 16, 1-(2-Methylpropyl) -3-decanoyl--4,4-dimethyl-1,4,5,6-tetrahydropyridine]
95 | CCCCCCCCCCCC(=O)C1=CN(C)CCC1(C)C [Compound 17, 1-Methyl-3-lauroyl--4,4-dimethyl 4,5,6-tetrahydropyridine]
95 | CCCCCCCCCCN1C=C(C(=O)CC)C(C)(C)CC1 [Compound 18, 1-Decyl-3-propionyl--4,4-dimethyl-1,4,5,6-tetrahydropyridine]
91 | CCCCCCCC(=O)C1=CN(C2CCCCC2)CCC1(C)C [Compound 19, 1-Cyclohexyl-3-octanoyl-4,4-dimethyl-1,4,5,6-tetrahydropyridine]
91 | CCCCCCCCCC(=O)C1=CN(C(C)(C)C)CCC1(C)C [Compound 20, 1-(1,1-Dimethyl-ethyl)-3-decanoyl--4,4-dimethyl-1,4,5,6-tetrahydropyridine]
100 | CCCCCCCC(=O)C1=CN(C(C)(C)C)CCC1(C)C [Compound 21, 1-(1,1-Dimethyl-ethyl)-3-octanoyl-4,4-dimethyl-1,4,5,6-tetrahydropyridine]
110 | CCCCCC(=O)C1=CN(C(C)(C)C)CCC1(C)C [Compound 22, 1-(1,1-Dimethyl-ethyl) -3-hexanoyl-4,4-dimethyl-1,4,5,6-tetrahydropyridine]
105 | CCCCCCCC(=O)C1=CN(C(C)C)CCC1(C)C [Compound 23, 1-(1-Methylethyl)-3-octanoyl-4,4-dimethyl-1,4,5,6-tetrahydropyridine]
131 | CC(C)CN1C=C(C(=O)CCCCC(=O)C2=CN(CC(C)C)CCC2(C)C)C(C)(C)CC1 [Compound 24]

Reference: EP0462123B1, “UV-ABSORBING COMPOUNDS AND COMPOSITIONS” (AUSTRALIAN INSTITUTE OF MARINE SCIENCE, priority 1989, dated 1990)
